Measured values from the Kinase Knowledgebase extract (Sharma et al. 2016).

Molecular target: PIK3CD (Human) (UniProt O00329)
Experiment: Assessment of PIK3CD Kinase Activity

PIK3CD (Human), sequence (O00329 whole entry, looked up): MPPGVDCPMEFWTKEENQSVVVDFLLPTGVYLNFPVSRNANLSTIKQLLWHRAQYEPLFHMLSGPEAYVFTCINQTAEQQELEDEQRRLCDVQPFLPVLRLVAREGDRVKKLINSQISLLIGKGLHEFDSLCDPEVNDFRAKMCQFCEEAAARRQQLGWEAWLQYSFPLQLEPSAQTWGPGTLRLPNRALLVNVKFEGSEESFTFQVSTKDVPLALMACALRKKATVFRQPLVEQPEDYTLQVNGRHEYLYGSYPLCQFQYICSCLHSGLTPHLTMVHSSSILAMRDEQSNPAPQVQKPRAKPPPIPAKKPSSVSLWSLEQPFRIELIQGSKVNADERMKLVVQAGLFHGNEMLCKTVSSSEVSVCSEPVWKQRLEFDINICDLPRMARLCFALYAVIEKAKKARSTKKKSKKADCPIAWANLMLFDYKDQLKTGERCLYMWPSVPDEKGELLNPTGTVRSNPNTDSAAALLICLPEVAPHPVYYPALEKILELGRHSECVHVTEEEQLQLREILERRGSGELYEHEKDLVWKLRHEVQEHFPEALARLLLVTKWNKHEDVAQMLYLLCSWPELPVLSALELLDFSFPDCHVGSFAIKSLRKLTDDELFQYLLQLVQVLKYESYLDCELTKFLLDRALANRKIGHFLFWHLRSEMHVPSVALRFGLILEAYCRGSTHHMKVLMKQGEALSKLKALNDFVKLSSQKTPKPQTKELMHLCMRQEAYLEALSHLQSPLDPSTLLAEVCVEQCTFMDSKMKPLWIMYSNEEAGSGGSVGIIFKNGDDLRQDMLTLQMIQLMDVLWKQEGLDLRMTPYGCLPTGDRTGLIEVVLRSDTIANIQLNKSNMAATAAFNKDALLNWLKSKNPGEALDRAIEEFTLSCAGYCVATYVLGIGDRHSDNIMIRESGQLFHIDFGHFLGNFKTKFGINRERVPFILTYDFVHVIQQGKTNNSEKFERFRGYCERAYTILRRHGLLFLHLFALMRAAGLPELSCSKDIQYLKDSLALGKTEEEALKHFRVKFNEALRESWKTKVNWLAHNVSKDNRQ

With `COCCN(C)C1CCN(Cc2cc3nc(-c4cccc5[nH]ccc45)nc(N4CCOCC4)c3s2)CC1` the IC50 was ≤ 100 nM.

`CN(CCCS(C)(=O)=O)C1CCN(Cc2cc3nc(-c4cccc5[nH]ncc45)nc(N4CCOCC4)c3s2)CC1` was tested, and the IC50 was ≤ 100 nM.

For `c1cc(-c2nc(N3CCOCC3)c3sc(CN4CCC(N5CCCCC5)CC4)cc3n2)c2cn[nH]c2c1`, the IC50 was ≤ 100 nM.

For `CC(C)(C(N)=O)N1CCN(Cc2cc3nc(-c4cccc5[nH]ncc45)nc(N4CCOCC4)c3s2)CC1`, the IC50 was ≤ 100 nM.

For `Cc1ccc(CN2CCN(Cc3cc4nc(-c5cccc6[nH]ncc56)nc(N5CCOCC5)c4s3)CC2)o1`, the IC50 was ≤ 100 nM.

In the case of `CC(C)(CO)N1CCN(Cc2cc3nc(-c4cccc5[nH]ncc45)nc(N4CCOCC4)c3s2)CC1`, the IC50 is reported as ≤ 100 nM.

In the case of `CC1CCCN(Cc2cc3nc(-c4cccc5[nH]ncc45)nc(N4CCOCC4)c3s2)C1` (configuration not stated), the IC50 is reported as ≤ 100 nM.

With `c1cc(-c2nc(N3CCOCC3)c3sc(CN4CCC(Cn5ccnc5)CC4)cc3n2)c2cn[nH]c2c1` the IC50 was ≤ 100 nM.

`COCCN1[C@H](C)CN(Cc2cc3nc(-c4cccc5[nH]ncc45)nc(N4CCOCC4)c3s2)C[C@@H]1C` was tested, and the IC50 was ≤ 100 nM.

`c1cc(-c2nc(N3CCOCC3)c3sc(CN4CCOCC4)cc3n2)c2cn[nH]c2c1` was tested, and the IC50 was ≤ 100 nM.

`c1ccc(NC2CCN(Cc3cc4nc(-c5cccc6[nH]ncc56)nc(N5CCOCC5)c4s3)CC2)nc1` was tested, and the IC50 was ≤ 100 nM.

With `OC1(c2nccs2)CCN(Cc2cc3nc(-c4cccc5[nH]ncc45)nc(N4CCOCC4)c3s2)CC1` the IC50 was ≤ 100 nM.

For `COCCN(C)C(=O)N1CCN(Cc2cc3nc(-c4cccc5[nH]ccc45)nc(N4CCOCC4)c3s2)CC1`, the IC50 was ≤ 100 nM.

With `COCC1CN(Cc2cc3nc(-c4cccc5[nH]ncc45)nc(N4CCOCC4)c3s2)CCN1S(C)(=O)=O` (configuration not stated) the IC50 was ≤ 100 nM.

In the case of `CN1CCN(Cc2cc3nc(-c4cccc5[nH]ncc45)nc(N4CCOCC4)c3s2)CC1`, the IC50 is reported as ≤ 100 nM.

`COCC1CCN(Cc2cc3nc(-c4cccc5[nH]ncc45)nc(N4CCOCC4)c3s2)CC1` was tested, and the IC50 was ≤ 100 nM.

`CN(C)CC1CCN(Cc2cc3nc(-c4cccc5[nH]ncc45)nc(N4CCOCC4)c3s2)CC1` was tested, and the IC50 was ≤ 100 nM.

For `CN(C)C(=O)N1CCN(Cc2cc3nc(-c4cccc5[nH]ncc45)nc(N4CCOCC4)c3s2)CC1`, the IC50 was ≤ 100 nM.

For `COCCCN(C)C1CCN(Cc2cc3nc(-c4cccc5[nH]ncc45)nc(N4CCOCC4)c3s2)CC1`, the IC50 was ≤ 100 nM.

`CCC(CC)(COC)N1CCN(Cc2cc3nc(-c4cccc5[nH]ncc45)nc(N4CCOCC4)c3s2)CC1` was tested, and the IC50 was ≤ 100 nM.

`CC(C)(O)CN1CCN(Cc2cc3nc(-c4cccc5[nH]ncc45)nc(N4CCOCC4)c3s2)CC1` was tested, and the IC50 was ≤ 100 nM.

For `CN(C)C(=O)N1CCN(Cc2cc3nc(-c4cccc5[nH]ccc45)nc(N4CCOCC4)c3s2)CC1`, the IC50 was ≤ 100 nM.

`OCCN1CCN(Cc2cc3nc(-c4cccc5[nH]ccc45)nc(N4CCOCC4)c3s2)CC1` was tested, and the IC50 was ≤ 100 nM.

For `COCC(=O)N(C)C1CCN(Cc2cc3nc(-c4cccc5[nH]ncc45)nc(N4CCOCC4)c3s2)CC1`, the IC50 was ≤ 100 nM.

`OCCC1CCN(Cc2cc3nc(-c4cccc5[nH]ncc45)nc(N4CCOCC4)c3s2)CC1` was tested, and the IC50 was ≤ 100 nM.

For `CNC(=O)[C@H]1CCCN(Cc2cc3nc(-c4cccc5[nH]ncc45)nc(N4CCOCC4)c3s2)C1`, the IC50 was ≤ 100 nM.

In the case of `CNC(=O)[C@@H]1CCCN(Cc2cc3nc(-c4cccc5[nH]ncc45)nc(N4CCOCC4)c3s2)C1`, the IC50 is reported as ≤ 100 nM.

In the case of `COCCC1CCN(Cc2cc3nc(-c4cccc5[nH]ncc45)nc(N4CCOCC4)c3s2)CC1`, the IC50 is reported as ≤ 100 nM.

In the case of `c1cc(-c2nc(N3CCOCC3)c3sc(CN4CCNCC4)cc3n2)c2cc[nH]c2c1`, the IC50 is reported as ≤ 100 nM.

`CNC(=O)C(C)(C)N1CCN(Cc2cc3nc(-c4cccc5[nH]ncc45)nc(N4CCOCC4)c3s2)CC1` was tested, and the IC50 was ≤ 100 nM.

With `Cn1ccnc1CN1CCN(Cc2cc3nc(-c4cccc5[nH]ncc45)nc(N4CCOCC4)c3s2)CC1` the IC50 was ≤ 100 nM.

With `COCC1(N2CCN(Cc3cc4nc(-c5cccc6[nH]ncc56)nc(N5CCOCC5)c4s3)CC2)CC1` the IC50 was ≤ 100 nM.

In the case of `COCCN(Cc1nccs1)C1CCN(Cc2cc3nc(-c4cccc5[nH]ncc45)nc(N4CCOCC4)c3s2)CC1`, the IC50 is reported as ≤ 100 nM.

For `Cc1cccc(CN2CCN(Cc3cc4nc(-c5cccc6[nH]ncc56)nc(N5CCOCC5)c4s3)CC2)n1`, the IC50 was ≤ 100 nM.

For `CC(C)(O)C1CCN(Cc2cc3nc(-c4cccc5[nH]ncc45)nc(N4CCOCC4)c3s2)CC1`, the IC50 was ≤ 100 nM.

`COCCN(C)C(=O)C1CCN(Cc2cc3nc(-c4cccc5[nH]ncc45)nc(N4CCOCC4)c3s2)CC1` was tested, and the IC50 was ≤ 100 nM.

For `c1ccc(CN2CCN(Cc3cc4nc(-c5cccc6[nH]ncc56)nc(N5CCOCC5)c4s3)CC2)nc1`, the IC50 was ≤ 100 nM.

For `COCCN(C1CCN(Cc2cc3nc(-c4cccc5[nH]ncc45)nc(N4CCOCC4)c3s2)CC1)S(C)(=O)=O`, the IC50 was ≤ 100 nM.

For `CN(C)C(=O)CN1CCN(Cc2cc3nc(-c4cccc5[nH]ccc45)nc(N4CCOCC4)c3s2)CC1`, the IC50 was ≤ 100 nM.

For `CN(C1CCN(Cc2cc3nc(-c4cccc5[nH]ncc45)nc(N4CCOCC4)c3s2)CC1)S(C)(=O)=O`, the IC50 was ≤ 100 nM.

In the case of `CC(C)(C(=O)N1CCCC1)N1CCN(Cc2cc3nc(-c4cccc5[nH]ncc45)nc(N4CCOCC4)c3s2)CC1`, the IC50 is reported as ≤ 100 nM.

`c1cc(-c2nc(N3CCOCC3)c3sc(CN4CCC(N5CCOCC5)CC4)cc3n2)c2cc[nH]c2c1` was tested, and the IC50 was ≤ 100 nM.

`CN1CCN(Cc2cc3nc(-c4cccc5c4cnn5C)nc(N4CCOCC4)c3s2)CC1` was tested, and the IC50 was ≤ 100 nM.

In the case of `c1cc(-c2nc(N3CCOCC3)c3sc(CN4CCN(Cc5nccs5)CC4)cc3n2)c2cn[nH]c2c1`, the IC50 is reported as ≤ 100 nM.

For `c1cc(-c2nc(N3CCOCC3)c3sc(CN4CCC(CN5CCOCC5)CC4)cc3n2)c2cn[nH]c2c1`, the IC50 was ≤ 100 nM.

For `O=C(N1CCOCC1)N1CCN(Cc2cc3nc(-c4cccc5[nH]ccc45)nc(N4CCOCC4)c3s2)CC1`, the IC50 was ≤ 100 nM.

For `CS(=O)(=O)C1CCN(Cc2cc3nc(-c4cccc5[nH]ncc45)nc(N4CCOCC4)c3s2)CC1`, the IC50 was ≤ 100 nM.

With `CNC(=O)C1CCN(Cc2cc3nc(-c4cccc5[nH]ncc45)nc(N4CCOCC4)c3s2)CC1` the IC50 was ≤ 100 nM.

`OCCN1CCN(Cc2cc3nc(-c4cccc5[nH]ncc45)nc(N4CCOCC4)c3s2)CC1` was tested, and the IC50 was ≤ 100 nM.

With `c1cc(-c2nc(N3CCOCC3)c3sc(CN4CCN(Cc5cscn5)CC4)cc3n2)c2cn[nH]c2c1` the IC50 was ≤ 100 nM.

`COCC(C)(C)N1CCN(Cc2cc3nc(-c4cccc5[nH]ncc45)nc(N4CCOCC4)c3s2)CC1` was tested, and the IC50 was ≤ 100 nM.

In the case of `CN1CCN(Cc2cc3nc(-c4cc(F)cc5[nH]ncc45)nc(N4CCOCC4)c3s2)CC1`, the IC50 is reported as ≤ 100 nM.

For `COCCCS(=O)(=O)C1CCN(Cc2cc3nc(-c4cccc5[nH]ncc45)nc(N4CCOCC4)c3s2)CC1`, the IC50 was ≤ 100 nM.

`OC1(Cc2ccccn2)CCN(Cc2cc3nc(-c4cccc5[nH]ncc45)nc(N4CCOCC4)c3s2)CC1` was tested, and the IC50 was ≤ 100 nM.

In the case of `CN(C)CCCS(=O)(=O)N1CCN(Cc2cc3nc(-c4cccc5[nH]ncc45)nc(N4CCOCC4)c3s2)CC1`, the IC50 is reported as ≤ 100 nM.

In the case of `CN(C)S(=O)(=O)N1CCN(Cc2cc3nc(-c4cccc5[nH]ncc45)nc(N4CCOCC4)c3s2)CC1`, the IC50 is reported as ≤ 100 nM.

With `C[C@@H]1CN(Cc2cc3nc(-c4cccc5[nH]ncc45)nc(N4CCOCC4)c3s2)C[C@H](C)N1Cc1nccs1` the IC50 was ≤ 100 nM.

For `c1cc(-c2nc(N3CCOCC3)c3sc(CN4CCN(c5nccs5)CC4)cc3n2)c2cn[nH]c2c1`, the IC50 was ≤ 100 nM.

With `[O-][n+]1cccc(CN2CCN(Cc3cc4nc(-c5cccc6[nH]ncc56)nc(N5CCOCC5)c4s3)CC2)c1` the IC50 was ≤ 100 nM.

`[O-][n+]1ccccc1CN1CCN(Cc2cc3nc(-c4cccc5[nH]ncc45)nc(N4CCOCC4)c3s2)CC1` was tested, and the IC50 was ≤ 100 nM.

`COCCN(CC1CC1)C1CCN(Cc2cc3nc(-c4cccc5[nH]ncc45)nc(N4CCOCC4)c3s2)CC1` was tested, and the IC50 was ≤ 100 nM.

For `COCC1CCCN(Cc2cc3nc(-c4cccc5[nH]ncc45)nc(N4CCOCC4)c3s2)C1` (configuration not stated), the IC50 was ≤ 100 nM.
